This is an account of results in BindingDB's records for doi:10.1124/jpet.104.081711 (Taisho Pharmaceutical, 2005).

In assay [1] the target is T1, 5-hydroxytryptamine receptor 1A (Homo sapiens, UniProt P08908).
T1 sequence (P08908 whole entry): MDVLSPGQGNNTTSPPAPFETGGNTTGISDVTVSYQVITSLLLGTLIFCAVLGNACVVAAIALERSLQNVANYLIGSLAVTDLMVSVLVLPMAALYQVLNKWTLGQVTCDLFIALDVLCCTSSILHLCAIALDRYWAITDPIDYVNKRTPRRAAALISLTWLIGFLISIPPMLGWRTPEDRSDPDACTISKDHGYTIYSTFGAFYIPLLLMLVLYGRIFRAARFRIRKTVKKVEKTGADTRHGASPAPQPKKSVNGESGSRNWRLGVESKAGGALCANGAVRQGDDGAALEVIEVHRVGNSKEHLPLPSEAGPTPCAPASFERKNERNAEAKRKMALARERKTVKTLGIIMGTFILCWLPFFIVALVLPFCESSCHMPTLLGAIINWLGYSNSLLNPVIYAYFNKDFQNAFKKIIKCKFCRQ

Assay [2] concerns the target 5-hydroxytryptamine receptor 2B (Homo sapiens, UniProt P41595).
Assay [3] concerns the target Melanin-concentrating hormone receptor 1 (Homo sapiens, UniProt Q99705).

By Ki is commonly meant the equilibrium dissociation constant of an inhibitor or competing ligand from its target.

Sequence of 5-hydroxytryptamine receptor 2B (P41595 whole entry): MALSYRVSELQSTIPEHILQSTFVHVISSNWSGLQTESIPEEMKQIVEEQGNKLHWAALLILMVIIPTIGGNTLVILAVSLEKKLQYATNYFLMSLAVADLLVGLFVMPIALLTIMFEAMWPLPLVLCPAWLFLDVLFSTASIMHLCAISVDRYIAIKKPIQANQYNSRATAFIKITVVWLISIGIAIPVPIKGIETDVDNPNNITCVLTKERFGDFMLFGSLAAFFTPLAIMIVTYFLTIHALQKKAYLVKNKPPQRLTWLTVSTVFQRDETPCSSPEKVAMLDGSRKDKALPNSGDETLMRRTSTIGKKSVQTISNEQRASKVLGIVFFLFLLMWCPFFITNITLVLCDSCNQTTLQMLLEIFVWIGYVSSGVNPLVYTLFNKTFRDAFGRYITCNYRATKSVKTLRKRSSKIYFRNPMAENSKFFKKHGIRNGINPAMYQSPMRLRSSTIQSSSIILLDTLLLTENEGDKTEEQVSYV
Sequence of Melanin-concentrating hormone receptor 1 (Q99705 as listed by the source): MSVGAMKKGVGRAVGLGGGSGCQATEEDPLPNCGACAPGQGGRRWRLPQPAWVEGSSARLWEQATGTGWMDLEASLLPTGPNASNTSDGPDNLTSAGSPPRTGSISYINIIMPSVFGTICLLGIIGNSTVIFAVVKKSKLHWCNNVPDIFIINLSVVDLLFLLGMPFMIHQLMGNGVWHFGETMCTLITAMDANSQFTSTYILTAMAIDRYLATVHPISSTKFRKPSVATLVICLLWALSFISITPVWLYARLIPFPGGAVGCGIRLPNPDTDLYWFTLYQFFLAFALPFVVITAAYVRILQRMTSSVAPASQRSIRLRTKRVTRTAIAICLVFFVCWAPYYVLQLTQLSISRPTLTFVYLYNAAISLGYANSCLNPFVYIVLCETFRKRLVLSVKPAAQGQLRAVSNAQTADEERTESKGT

Turning to `CN(C)c1nc(N[C@H]2CC[C@@H](NC(=O)c3ccc(F)c(F)c3)CC2)nc2ccccc12` [ATC0175], the Ki in assay [1] was 16.9 nM; in assay [2], 9.66 nM.

Take `CN(C)c1nc(N[C@H]2CC[C@@H](NCCc3ccc(Br)cc3OC(F)(F)F)CC2)nc2ccccc12` [CAS_510732-84-0]: the results for the Ki in assay [2] and in assay [3] were 266 nM and 15.7 nM, respectively.
